Results from patent publication US12065494B2, “Combination therapy comprising an FGFR inhibitor and a Nectin-4 targeting agent” (Incyte Corporation, priority 2021, dated 2024).

Key:
Nectin-4 [1] = assay: RT112/84 in vitro Nectin-4 receptor density (flow cytometry); type: cell-based; conditions: RT112/84 cells; 100 nM pemigatinib, 100 nM EV or both; different time points after treatment
Experimental: The effect of combining pemigatinib plus enfortumab vedotin (“EV”) (Padcev, Refdrug Inc.) on Nectin-4 receptor density was assessed in vitro in the RT112/84 bladder cancer cell line. Briefly, RT112/84 cells were treated with either 100 nM pemigatinib, 100 nM EV, or the combination of both. The receptor density of Nectin-4 was then assessed by flow cytometry upon a LSRFortessa X-20 instrument (BD Biosciences) with Quantibrite phycoerythrin (PE) beads (BD Biosciences Cat No 340495) using an anti-Nectin-4 PE conjugated antibody (RnD Systems Cat No FAB2659) at different time points after treatment (FIG. 2A).

[2] = test system: UM-UC-14 cancer xenograft model; assay: UM-UC-14 xenograft model, tumor growth; type: in vivo, mice; conditions: single agent
[3] = test system: RT112/84 bladder cancer xenograft model; assay: RT112/84 xenograft model, tumor growth (6 groups); type: in vivo, mice
Experimental: The in vivo effect of combining pemigatinib plus EV (Padcev, Refdrug Inc.) was assessed in the RT112/84 bladder cancer (85061106, Sigma/ECACC, UK) xenograft model (FIG. 4) in 6 to 8 weeks old NSG mice (Jackson laboratories). Pemigatinib was suspended in 5% N,N-dimethyl acetamide (DMAC)+50 mM Citrate buffer in 0.5% methyl cellulose for oral administration and EV was suspended in saline for intravenous administration. Briefly, the left flank of the mice were shaved the day prior to subcutaneous inoculation with 2×10^6 RT112/84 suspended in matrigel (Corning Life Sciences, Tewksbury, Mass.). On day 7, tumor dimensions were measured by Vernier calipers, and volume estimated by the formula Volume=[L (long dimension)×W2 (short dimension)]/2. Mice were randomized into 6 groups of 10 mice of approximate mean volume (˜200 mm^3). Tumors were measured 3 times per week for the duration of the study. Starting day 7, mice were dosed with (i) vehicle; (ii) 0.3 mg/kg of pemigatinib; (iii) 1 mg/kg of pemigatinib; (iv) 3 mg/kg of EV; (v) 0.3 mg/kg of pemigatinib and 3 mg/kg of EV; or (vi) 1 mg/kg of pemigatinib and 3 mg/kg of EV. Pemigatinib was administered orally once daily (QD) for 10 days, while EV was dosed every 4 days (for a total of 2 doses).

Nectin-4 [4] = assay: RT112/84 in vivo Nectin-4 receptor density (xenograft, flow cytometry); conditions: RT112/84 tumor bearing NSG mice; pemigatinib 0.3 or 1 mg/kg oral, EV 3 mg/kg intravenous; tumors collected 4 h post dose
Experimental: The effect of combining pemigatinib plus EV (Padcev, Refdrug Inc.) on Nectin-4 receptor density was also assessed in vivo in the RT112/84 bladder cancer xenograft model (FIG. 2B) in 6 to 8 weeks old NSG mice (Jackson laboratories). Pemigatinib was suspended in 5% N,N-dimethyl acetamide (DMAC)+50 mM Citrate buffer in 0.5% methyl cellulose for oral administration and EV was suspended in saline for intravenous administration. Briefly, the left flanks of the mice were shaved the day prior to subcutaneous inoculation with 2×10^6 RT112/84 suspended in matrigel (Corning Life Sciences, Tewksbury, Mass.). On day 16, mice were dosed with (i) vehicle; (ii) 0.3 mg/kg of pemigatinib; (iii) 1 mg/kg of pemigatinib; (iv) 3 mg/kg of EV; (v) 0.3 mg/kg of pemigatinib and 3 mg/kg of EV; or (vi) 1 mg/kg of pemigatinib and 3 mg/kg of EV, and tumors were collected 4 h post dose.

ERK = assay: RT112/84 in vivo pERK inhibition (tumor lysates, MSD); conditions: RT112/84 tumor bearing NSG mice; pemigatinib 1 mg/kg oral, EV 3 mg/kg intravenous; tumors collected 4 h post dose
Experimental: Tumors were then processed and levels of phospho ERK were assessed on tumor lysates by MSD (Mesoscale).

[5] = pemigatinib 0.3 mg/kg oral QD for 10 days
[6] = pemigatinib 1 mg/kg oral QD for 10 days

CCN1C(=O)N(c2c(F)c(OC)cc(OC)c2F)Cc2cnc3[nH]c(CN4CCOCC4)cc3c21 [pemigatinib, 3-(2,6-difluoro-3,5-dimethoxyphenyl)-1-ethyl-8-(morpholin-4-ylmethyl)-1,3,4,7-tetrahydro-2H-pyrrolo[3′,2′:5,6]pyrido[4,3-d]pyrimidin-2-one]
Nectin-4 receptor density (Nectin-4 [1]): did not induce changes in Nectin-4 receptor density | therapeutic effect in delaying tumor growth vs vehicle [2, 5]: only pemigatinib 1 mg/kg treatment had a therapeutic effect | therapeutic effect in delaying tumor growth vs vehicle [2, 6]: had a therapeutic effect in delaying tumor growth as single agent | therapeutic effect in delaying tumor growth vs vehicle [3, 5]: all the treatments, with the exemption of pemigatinib 0.3 mg/kg, had a therapeutic effect | therapeutic effect in delaying tumor growth vs vehicle [3, 6]: had a therapeutic effect in delaying tumor growth | Nectin-4 receptor density in tumor cells (Nectin-4 [4]): did not induce changes in Nectin-4 receptor density | phosphorylation of ERK in tumor (ERK): decrease phosphorylation of ERK
